Source: US9695155B2, “Herbicidal substituted pyrimidinyloxy benzene compounds” (E. I. DU PONT DE NEMOURS AND COMPANY, priority 2013, dated 2017)

Tests used:
[1] = system: oilseed rape; test: Test D postemergence; assay type: in vivo, Brassica napus; conditions: Brassica napus, post-emergence, scale 0 to 100 (0 no effect, 100 complete control), read-out: Plant response rating, Oilseed Rape
Description: (§1) Seeds of plant species selected from bluegrass (annual bluegrass, Poa annua), blackgrass (Alopecurus myosuroides), canarygrass (littleseed canarygrass, Phalaris minor), chickweed (common chickweed, Stellaria media), galium (catchweed bedstraw, Galium aparine), bromegrass, downy (downy bromegrass, Bromus tectorum), field poppy (Papaver rhoeas), field violet (Viola arvensis), green foxtail (Setaria viridis), deadnettle (henbit deadnettle, Lamium amplexicaule), Italian ryegrass (Lolium multiflorum), kochia (Kochia scoparia), lambsquarters (Chenopodium album), oilseed rape (Brassica napus), pigweed (Amaranthus retroflexus), chamomile (scentless chamomile, Matricaria inodora), Russian thistle (Salsola kali), speedwell (bird's-eye speedwell, Veronica persica), spring barley (Hordeum vulgare), spring wheat (Triticum aestivum), wild buckwheat (Polygonum convolvulus), wild mustard (Sinapis arvensis), wild oat (Avena fatua), wild radish (Raphanus raphanistrum), windgrass (Apera spica-venti), winter barley (Hordeum vulgare), and winter wheat (Triticum aestivum) were planted into a silt loam soil and treated preemergence with test chemicals formulated in a non-phytotoxic solvent mixture which included a surfactant.
(§2) At the same time, these species were planted in pots containing Redi-Earth® planting medium (Scotts Company, 14111 Scottslawn Road, Marysville, Ohio 43041) comprising spaghnum peat moss, vermiculite, wetting agent and starter nutrients and treated with postemergence applications of the test chemicals formulated in the same manner. Plants ranged in height from 2 to 18 cm (1- to 4-leaf stage). Treated plants and controls were maintained in a controlled growth environment for 7 to 21 days after which time all species were compared to controls and visually evaluated. Plant response ratings, summarized in Table D, are based on a scale of 0 to 100 where 0 is no effect and 100 is complete control. A dash (-) response means no test result.

[2] = system: wild buckwheat; test: Test D preemergence; assay type: in vivo, Polygonum convolvulus; conditions: Fallopia convolvulus, pre-emergence, scale 0-100, read-out: Plant response rating, Buckwheat, Wild
Description: as §1, §2

[3] = system: field violet; test: Test D postemergence; assay type: in vivo, Viola arvensis; conditions: Viola arvensis, post-emergence, scale 0 to 100 (0 no effect, 100 complete control), read-out: Plant response rating, Field Violet
Description: as §1, §2

[4] = system: horseweed; test: Test E postemergence; assay type: in vivo, Conyza canadensis
Description: Seeds of plant species selected from corn (Zea mays), soybean (Glycine max), velvetleaf (Abutilon theophrasti), lambsquarters (Chenopodium album), wild poinsettia (Euphorbia heterophylla), palmer pigweed (Amaranthus palmeri), waterhemp (common waterhemp, Amaranthus rudis), surinam grass (Brachiaria decumbens), large (Lg) crabgrass (Digitaria sanguinalis), Brazilian crabgrass (Digitaria horizontalis), fall panicum (Panicum dichotomiflorum), giant foxtail (Setaria faberii), green foxtail (Setaria viridis), goosegrass (Eleusine indica), johnsongrass (Sorghum halepense), ragweed (common ragweed, Ambrosia elatior), barnyardgrass (Echinochloa crus-galli), sandbur (southern sandbur, Cenchrus echinatus), arrowleaf sida (Sida rhombifolia), Italian ryegrass (Lolium multiflorum), dayflower (Virginia (VA) dayflower, Commelina virginica), field bindweed (Convolvulus arvensis), morningglory (Ipomoea coccinea), nightshade (eastern black nightshade, Solanum ptycanthum), kochia (Kochia scoparia), yellow nutsedge (Cyperus esculentus), cocklebur (common cocklebur, Xanthium strumarium), smartweed (ladysthumb smartweed, and hairy beggarticks (Bidens pilosa), were planted into a silt loam soil and treated preemergence with test chemicals formulated in a non-phytotoxic solvent mixture which included a surfactant.
At the same time, plants from these crop and weed species and also horseweed (Canada horseweed, Conyza canadensis), waterhemp_RES1, (ALS & Triazine resistant common waterhemp, Amaranthus rudis), and waterhemp_RES2, (ALS & HPPD resistant common waterhemp, Amaranthus rudis) were planted in pots containing Redi-Earth® planting medium (Scotts Company, 14111 Scottslawn Road, Marysville, Ohio 43041) comprising spaghnum peat moss, vermiculite, wetting agent and starter nutrients were treated with postemergence applications of test chemicals formulated in the same manner. Plants ranged in height from 2 to 18 cm for postemergence treatments (1- to 4-leaf stage). Treated plants and controls were maintained in a greenhouse for 14 to 21 days, after which time all species were compared to controls and visually evaluated. Plant response ratings, summarized in Table E, are based on a scale of 0 to 100 where 0 is no effect and 100 is complete control. A dash (-) response means no test result.

[5] = system: Italian ryegrass; test: Test F preemergence; assay type: in vivo, Lolium multiflorum; conditions: 21 days, scale 0 to 100
Description: Seeds of plant species selected from bermudagrass (Cynodon dactylon), surinam grass (Brachiaria decumbens), large (Lg) crabgrass (Digitaria sanguinalis), crabgrass, naked (naked crabgrass, Digitaria nuda), foxtail, green (green foxtail, Setaria viridis), johnsongrass (Sorghum halepense), kochia (Kochia scoparia), morningglory (pitted morningglory, Ipomoea lacunosa), nutsedge, purple (purple nutsedge, Cyperus rotundus), ragweed (common ragweed, Ambrosia elatior), mustard, black (black mustard, Brassica nigra), guineagrass (Panicum maximum), dallisgrass (Paspalum dilatatum), barnyardgrass (Echinochloa crus-galli), sandbur (southern sandbur, Cenchrus echinatus), sowthistle (common sowthistle, Sonchus oleraceous), Italian ryegrass (Lolium multiflorum), signalgrass (broadleaf signalgrass, Brachiaria platyphylla), dayflower (Virginia (VA) dayflower, Commelina virginica), bluegrass (annual bluegrass, Poa annua), quackgrass (Elytrigia repens), mallow (common mallow, Malva sylvestris), buckwheat, wild (wild buckwheat, Polygonum convolvulus), leafy spurge (Euphorbia esula), chickweed (common chickweed, Stellaria media), wild poinsettia (Euphorbia heterophylla), and pigweed (Amaranthus retroflexus) were planted into a blend of loam soil and sand and treated preemergence with test chemicals formulated in a non-phytotoxic solvent mixture which included a surfactant.
Treated plants and controls were maintained in a greenhouse for 21 days, after which time all species were compared to controls and visually evaluated. Plant response ratings, summarized in Table F, are based on a scale of 0 to 100 where 0 is no effect and 100 is complete control. A dash (-) response means no test result.

## N#Cc1cccc(Oc2ncc(Cl)cn2)c1-n1cc(Br)cn1 [Compound 52, 2-(4-bromo-1H-pyrazol-1-yl)-3-[(5-chloro-2-pyrimidinyl)oxy]benzonitrile]
[1]; 31 g ai/ha
  plant injury at 31 g/ha: 55%
[1]; 62 g ai/ha
  plant injury at 62 g/ha: 65%
[1]; 125 g ai/ha
  plant injury at 125 g/ha: 85%
[1]; 250 g ai/ha
  plant injury at 250 g/ha: 95%
[2]; 31 g ai/ha
  pest or weed control at 31 g/ha: 10%
[2]; 62 g ai/ha
  pest or weed control at 62 g/ha: 50%
[2]; 125 g ai/ha
  pest or weed control at 125 g/ha: 100%
[2]; 250 g ai/ha
  pest or weed control at 250 g/ha: 100%
[3]; 31 g ai/ha
  pest or weed control at 31 g/ha: 100%
[3]; 62 g ai/ha
  pest or weed control at 62 g/ha: 100%
[3]; 125 g ai/ha
  pest or weed control at 125 g/ha: 100%
[3]; 250 g ai/ha
  pest or weed control at 250 g/ha: 100%

## N#Cc1cccc(Oc2ncc(F)cn2)c1-n1cc(C(F)(F)F)cn1 [Compound 79, 3-[(5-fluoro-2-pyrimidinyl)oxy]-2-[4-(trifluoromethyl)-1H-pyrazol-1-yl]benzonitrile]
[4]; Postemergence, 31 g ai/ha, scale 0 to 100
  Plant response rating, Horseweed: 0
[4]; Postemergence, 62 g ai/ha, scale 0 to 100
  Plant response rating, Horseweed: 20
[4]; Postemergence, 125 g ai/ha, scale 0 to 100
  Plant response rating, Horseweed: 30
[4]; postemergence, 16 g ai/ha, scale 0 to 100, 0 no effect, 100 complete control
  Plant response rating, Horseweed: 0
[5]; 16 g ai/ha
  Plant response rating, Ryegrass, Italian: 30
[5]; 31 g ai/ha
  Plant response rating, Ryegrass, Italian: 75
[5]; 62 g ai/ha
  Plant response rating, Ryegrass, Italian: 98
[5]; 125 g ai/ha
  Plant response rating, Ryegrass, Italian: 100
[5]; 250 g ai/ha
  Plant response rating, Ryegrass, Italian: 100

## N#Cc1cccc(Oc2ncc(Cl)cn2)c1-n1cc(OC(F)F)cn1 [Compound 97]
[5]; 16 g ai/ha
  Plant response rating, Ryegrass, Italian: 0
[5]; 31 g ai/ha
  Plant response rating, Ryegrass, Italian: 35
[5]; 62 g ai/ha
  Plant response rating, Ryegrass, Italian: 70
[5]; 125 g ai/ha
  Plant response rating, Ryegrass, Italian: 85
[5]; 250 g ai/ha
  Plant response rating, Ryegrass, Italian: 100
